From USRE30241E, “Esters of 3-(hydroxy or hydroxymethyl)-4-hydroxyphenyl aminomethyl ketones” (Sterling Drug Inc., priority 1970, dated 1980)
Counter-ions that a name gives are not always drawn. Like-named read-outs stand apart in the source and are kept apart here.

Experiments:
[1] = tested on: carbachol- or histamine-induced bronchoconstriction; test: Bronchodilator Test Method I, anesthetized dog, intravenous activity; assay type: in vivo; settings: Canis lupus familiaris, read-out: Bronchodilatation; for inhibition in vivo at 0.0012 mg/kg: 1.2 mcg/kg i.v.; for inhibition in vivo at 0.003 mg/kg: 3.0 mcg/kg i.v.; for inhibition in vivo at 0.0055 mg/kg: 5.5 mcg/kg i.v.; for inhibition in vivo at 0.0005 mg/kg: 0.5 mcg/kg i.v.; for inhibition in vivo at 0.006 mg/kg: 6.0 mcg/kg i.v.
In short: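 Pentobarbital-anesthetized (30 mg/kg i.v.), open-chest, artificially ventilated dogs were given i.v. carbachol (4-6 µg/kg) or histamine diphosphate (35-45 µg/kg). Test compound was given i.v. mixed with, after, or 1-10 min before the constrictor.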

[2] = tested on: guinea pig bronchioles constricted by carbachol; test: Bronchodilator Test Method II, in vitro perfused guinea pig lung
Protocol: In this method bronchodilator activity in vitro was determined by testing the effect of graded doses of the test compounds on guinea pig bronchioles constricted by carbachol, using the technique reported by Sollman and von Oettingen, Proc. Soc, Exp. Biol. Med., 25,692 (1928) as modified by Tainter, Pedden, and James, J. Pharm. Exp. Ther., 51, 371 (1934) and by Luduena, von Euler, Tullar, and Lands, Arch. intern. Pharmacol., III, 392 (1957).

[3] = Solubility and pH of salts
[4] = tested on: carbachol- or histamine-induced bronchoconstriction; test: Bronchodilator Test Method I, anesthetized dog, intraduodenal activity; assay type: in vivo; settings: Canis lupus familiaris, read-out: Bronchodilation; for inhibition in vivo at 0.005 mg/kg: 5 mcg/kg (salt) intraduodenal; for inhibition in vivo at 0.04 mg/kg: 40 mcg/kg (salt) intraduodenal; for inhibition in vivo at 0.16 mg/kg: 160 mcg/kg (salt) intraduodenal
In short: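 Pentobarbital-anesthetized (30 mg/kg i.v.) open-chest dogs of 9-18 kg, artificially ventilated; airway pressure recorded via tracheal cannula transducer. Test solution injected intraduodenally; from 5 min, i.v. carbachol (4-6 μg/kg) or histamine diphosphate (35-45 μg/kg) challenges every 30-60 min gauged degree and duration of bronchodilation.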

[5] = tested on: heart rate; test: Cardiovascular studies: effect on the heart rate in the anesthetized dog; assay type: in vivo
Protocol: The effect of a rapid intravenous injection on the heart rate the heart rate was conducted in anesthetized dogs under normal respiration. A few open-chest dogs were also tested. Increase in heart rate was measured by using an electrocardiograph attached to the dog. Readings were taken every 0.5-1 minute for the first 10 minutes and every 2-5 minutes thereafter until recovery. In some cases, several doses and more than one compound were tested alternately in the same dog. The blood pressure effect was simultaneously recorded.

[6] = 1 percent solution in dimethyl sulfoxide
[7] = 1 percent solution in glycerol formal

CC(C)(C)NCC(O)c1ccc(OC(=O)C2CCCCC2)c(OC(=O)C2CCCCC2)c1.Cl (stereo not drawn) [Example 15, 3,4-bis(cyclohexanecarbonyloxy)-alpha-(tert-butylaminomethyl)benzyl alcohol hydrochloride]
inhibition in vivo at 0.0012 mg/kg ([1]; 2 min, 2 min): 20% | inhibition in vivo at 0.003 mg/kg ([1]; 2 min, 2 min): 36% | inhibition in vivo at 0.0012 mg/kg ([1]; 0.5 h, 30 min): 27% | inhibition in vivo at 0.0012 mg/kg ([1]; 1 h, 60 min): 8% | inhibition in vivo at 0.003 mg/kg ([1]; 1 h, 60 min): 31% | inhibition in vivo at 0.0012 mg/kg ([1]; 2 h, 120 min): 0% | inhibition in vivo at 0.003 mg/kg ([1]; 2 h, 120 min): 26% | inhibition in vivo at 0.003 mg/kg ([1]; 3 h, 180 min): 20% | ED50 ([2]; carbachol (Doryl) 1:5 million): 1.3 µg (base) | Duration, Mean ([2]; dose 3.2 mcg (base)): 53 ± 7 min | precipitation on dilution with three volumes of water [3, 6]: no precipitate formed | solubility ([3]; polyethyleneglycol, organic solvent or mixture): < 1 mg/mL | solubility ([3]; water): < 1 mg/mL

CCC(C)C(=O)Oc1ccc(C(O)CNC(C)(C)C)cc1OC(=O)C(C)CC.Cl (stereo not drawn) [Example 4, 3,4-bis(2-methylbutanoyloxy)-alpha-(tert-butylaminomethyl)benzyl alcohol hydrochloride]
inhibition in vivo at 0.0055 mg/kg ([1]; 2 min, 2 min): 48% | inhibition in vivo at 0.0055 mg/kg ([1]; 0.5 h, 30 min): 5% | inhibition in vivo at 0.0055 mg/kg ([1]; 1 h, 60 min): 0% | ED50 ([2]; carbachol (Doryl) 1:5 million): 0.45 µg (base) | Duration, Mean ([2]; dose 1 mcg (base)): 20 ± 3 min | solubility ([3]; water): ≥ 50 mg/mL

CC(C)(C)NCC(O)c1ccc(OC(=O)c2ccccc2)c(OC(=O)c2ccccc2)c1.Cl (stereo not drawn) [Example 29, 3,4-bis(benzoyloxy)-alpha-(tert-butylaminomethyl)benzyl alcohol hydrochloride]
ED50 ([2]; carbachol (Doryl) 1:5 million): 1.1 µg (base) | Duration, Mean ([2]; dose 3.2 mcg (base)): 34 ± 6.4 min | precipitation on dilution with three volumes of water [3, 6]: no precipitate formed | precipitation on dilution with three volumes of water [3, 7]: no precipitate formed | solubility ([3]; dimethyl sulfoxide, organic solvent or mixture): ≥ 10 mg/mL | solubility ([3]; glycerol formal, organic solvent or mixture): ≥ 10 mg/mL

CC(C)(C)NCC(=O)c1ccc(OC(=O)C(C)(C)C)c(OC(=O)C(C)(C)C)c1.Cl [3,4-bis(pivalyloxy)phenyl tert-butylaminomethyl ketone hydrochloride]
solubility ([3]; water): ≥ 10 mg/mL

CC(C)CC(=O)Oc1cc(C(O)CNC(C)(C)C)ccc1OC(=O)C(C)(C)C.Cl (stereo not drawn) [Example 71, 3-(isovaleryloxy)-4-(pivalyloxy)-alpha-(tert-butylaminomethyl)benzylalcohol hydrochloride]
ED50 ([2]; carbachol (Doryl) 1:5 million): 0.63 µg (base) | Duration, Mean ([2]; dose 2 mcg (base)): 26 min | solubility ([3]; water): ≥ 50 mg/mL

COc1ccc(C(=O)Oc2cc(C(O)CNC(C)(C)C)ccc2OC(C)=O)cc1 (stereo not drawn) [Example 149, 3-(p-anisoyloxy)-4-acetoxy-alpha-(tert-butylaminomethyl)benzyl alcohol methanesulfonate]
inhibition in vivo at 0.0005 mg/kg ([1]; 5 min, 5 min): 54% | inhibition in vivo at 0.006 mg/kg ([1]; 5 min, 5 min): 100% | inhibition in vivo at 0.0005 mg/kg ([1]; 0.5 h, 30 min): 19% | inhibition in vivo at 0.006 mg/kg ([1]; 0.5 h, 30 min): 32% | inhibition in vivo at 0.0005 mg/kg ([1]; 1 h, 60 min): 19% | inhibition in vivo at 0.006 mg/kg ([1]; 1 h, 60 min): 24% | inhibition in vivo at 0.005 mg/kg ([4]; 5 min, 5 min): 0% | inhibition in vivo at 0.04 mg/kg ([4]; 5 min, 5 min): 78% | inhibition in vivo at 0.16 mg/kg ([4]; 5 min, 5 min): 72% | inhibition in vivo at 0.005 mg/kg ([4]; 0.5 h, 30 min): 7% | inhibition in vivo at 0.04 mg/kg ([4]; 0.5 h, 30 min): 52% | inhibition in vivo at 0.16 mg/kg ([4]; 0.5 h, 30 min): 61% | inhibition in vivo at 0.005 mg/kg ([4]; 1 h, 60 min): 13% | inhibition in vivo at 0.04 mg/kg ([4]; 1 h, 60 min): 44% | inhibition in vivo at 0.16 mg/kg ([4]; 1 h, 60 min): 56% | inhibition in vivo at 0.005 mg/kg ([4]; 2 h, 120 min): 5% | inhibition in vivo at 0.04 mg/kg ([4]; 2 h, 120 min): 31% | inhibition in vivo at 0.16 mg/kg ([4]; 2 h, 120 min): 11% | inhibition in vivo at 0.005 mg/kg ([4]; 3 h, 180 min): 9% | inhibition in vivo at 0.16 mg/kg ([4]; 3 h, 180 min): 22% | inhibition in vivo at 0.005 mg/kg ([4]; 4 h, 240 min): 0% | inhibition in vivo at 0.04 mg/kg ([4]; 4 h, 240 min): 35% | inhibition in vivo at 0.16 mg/kg ([4]; 4 h, 240 min): 23% | inhibition in vivo at 0.04 mg/kg ([4]; 5 h, 300 min): 35% | Mean Maximal Increase in the Heart Rate ([5]; 0.8 mcg/kg (salt) i.v.): 19 Beats/Minute | Mean Maximal Increase in the Heart Rate ([5]; 6.4 mcg/kg (salt) i.v.): 47 Beats/Minute | Mean Maximal Increase in the Heart Rate ([5]; 32 mcg/kg (salt) i.v.): 70 Beats/Minute | ED50 ([2]; Doryl conc. 1:10 million): 0.91 µg (base) | Duration, Mean ([2]; dose 2 mcg (base), Doryl conc. 1:10 million): 13.2 ± 1.9 min

Cc1ccc(C(=O)Oc2ccc(C(=O)CNC(C)(C)C)cc2OC(=O)c2ccc(C)cc2)cc1 [3,4-bis(p-toluyloxy)phenyl tert-butylaminomethyl ketone hydrochloride]
solubility ([3]; water): < 1 mg/mL

COc1ccc(C(=O)Oc2ccc(C(O)CNC(C)(C)C)cc2OC(=O)c2ccc(OC)cc2)cc1.Cl (stereo not drawn) [Example 33, 3,4-bis(p-anisoyloxy)-alpha-(tert-butylaminomethyl)benzyl alcohol hydrochloride]
ED50 ([2]; carbachol (Doryl) 1:5 million): 6.9 µg (base) | Duration, Mean ([2]; dose 10 mcg (base)): 32 ± 5 min | precipitation on dilution with three volumes of water [3, 6]: no precipitate formed | precipitation on dilution with three volumes of water [3, 7]: no precipitate formed | solubility ([3]; polyethyleneglycol 200, organic solvent or mixture): < 10 mg/mL

CC(C)CC(=O)Oc1ccc(C(O)CNC(C)(C)C)cc1O (stereo not drawn) [Example 58, 3-hydroxy-4-(isovaleryloxy)-alpha-(tert-butylaminomethyl)benzyl alcohol methanesulfonate]
ED50 ([2]; carbachol (Doryl) 1:5 million): 1.4 µg (base) | Duration, Mean ([2]; dose 2.4 mcg (base)): 12 ± 2.5 min | solubility ([3]; water): ≥ 50 mg/mL

Cc1ccc(C(=O)Oc2ccc(C(O)CNC(C)(C)C)cc2O)cc1 (stereo not drawn) [Example 69, 3-hydroxy-4-(p-toluyloxy)-alpha-(tert-butylaminomethyl)benzyl alcohol methanesulfonate]
solubility ([3]; water): ≥ 50 mg/mL

CCC(C)CC(=O)Oc1ccc(C(O)CNC(C)(C)C)cc1OC(=O)CC(C)CC.Cl (stereo not drawn) [Example 6, 3,4-bis(3-methylpentanoyloxy)-alpha-(tert-butylaminomethyl)benzyl alcohol hydrochloride]
ED50 ([2]; carbachol (Doryl) 1:5 million): 1.3 µg (base) | Duration, Mean ([2]; dose 3.2 mcg (base)): 43 ± 3.7 min | solubility ([3]; water): ≥ 50 mg/mL

CCCC(=O)Oc1ccc(C(O)CNC(C)(C)C)cc1OC(=O)CCC.Cl (stereo not drawn) [Example 1, 3,4-bis(butyryloxy)-alpha-(tert-butylaminomethyl)benzyl alcohol hydrochloride]
ED50 ([2]; carbachol (Doryl) 1:5 million): 0.23 µg (base) | Duration, Mean ([2]; dose 0.5 mcg (base)): 9 ± 1.0 min | pH of a 1 percent aqueous solution ([3]; 1 percent aqueous solution of the salt): 6.0 | precipitation on raising pH to 7.0 ([3]; 1 percent aqueous solution, N/10 sodium hydroxide to pH 7.0): a precipitate formed | solubility ([3]; water): ≥ 200 mg/mL

CCCC(C)(C)C(=O)Oc1ccc(C(O)CNC(C)(C)C)cc1OC(=O)C(C)(C)CCC (stereo not drawn) [Example 8, 3,4-bis(2,2-dimethylpentanoyloxy)-alpha-(tert-butylaminomethyl)benzyl alcohol]
solubility ([3]; water): ≥ 50 mg/mL
